Data published in PubChem BioAssay (NCI).
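Interpolation was linear, between the two tested concentrations surrounding the appropriate level; five concentrations were tested over 48 hours in 96-well plates. TGI: total growth inhibition.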

Legend:
Experiment in all cases: DTP human tumour cell line panel, 48 h
786-0 renal = test system: 786-0 renal
A498 renal = test system: A498 renal
A549 NSCLC = test system: A549 NSCLC
ACHN renal = test system: ACHN renal
BT-549 breast = test system: BT-549 breast
CAKI-1 renal = test system: CAKI-1 renal
CCRF-CEM leukemia = test system: CCRF-CEM leukemia
COLO 205 colon = test system: COLO 205 colon
DU-145 prostate = test system: DU-145 prostate
EKVX NSCLC = test system: EKVX NSCLC
HCC-2998 colon = test system: HCC-2998 colon
HCT-116 colon = test system: HCT-116 colon
HCT-15 colon = test system: HCT-15 colon
HL-60(TB) leukemia = test system: HL-60(TB) leukemia
HOP-62 NSCLC = test system: HOP-62 NSCLC
HOP-92 NSCLC = test system: HOP-92 NSCLC
HS 578T breast = test system: HS 578T breast
HT29 colon = test system: HT29 colon
IGROV1 ovarian = test system: IGROV1 ovarian
K-562 leukemia = test system: K-562 leukemia
KM12 colon = test system: KM12 colon
LOX IMVI melanoma = test system: LOX IMVI melanoma
M14 melanoma = test system: M14 melanoma
MALME-3M melanoma = test system: MALME-3M melanoma
MCF7 breast = test system: MCF7 breast
MDA-MB-231 breast = test system: MDA-MB-231 breast
MDA-MB-435 = test system: MDA-MB-435
MDA-N = test system: MDA-N
MOLT-4 leukemia = test system: MOLT-4 leukemia
NCI-H23 lung = test system: NCI-H23 lung
NCI-H460 lung = test system: NCI-H460 lung
NCI-H522 lung = test system: NCI-H522 lung
NCI/ADR-RES ovarian = test system: NCI/ADR-RES ovarian
OVCAR-3 ovarian = test system: OVCAR-3 ovarian
OVCAR-4 ovarian = test system: OVCAR-4 ovarian
OVCAR-5 ovarian = test system: OVCAR-5 ovarian
OVCAR-8 ovarian = test system: OVCAR-8 ovarian
PC-3 prostate = test system: PC-3 prostate
RPMI-8226 leukemia = test system: RPMI-8226 leukemia
RXF 393 renal = test system: RXF 393 renal
SF-268 CNS = test system: SF-268 CNS
SF-295 CNS = test system: SF-295 CNS
SF-539 CNS = test system: SF-539 CNS
SK-MEL-2 melanoma = test system: SK-MEL-2 melanoma
SK-MEL-28 melanoma = test system: SK-MEL-28 melanoma
SK-MEL-5 melanoma = test system: SK-MEL-5 melanoma
SN12C renal = test system: SN12C renal
SNB-19 CNS = test system: SNB-19 CNS
SR leukemia = test system: SR leukemia
SW-620 colon = test system: SW-620 colon
T-47D breast = test system: T-47D breast
TK-10 renal = test system: TK-10 renal
U251 CNS = test system: U251 CNS
UACC-257 melanoma = test system: UACC-257 melanoma
UACC-62 melanoma = test system: UACC-62 melanoma
UO-31 renal = test system: UO-31 renal
NCI-H226 lung = test system: NCI-H226 lung
SK-OV-3 ovarian = test system: SK-OV-3 ovarian
SNB-75 CNS = test system: SNB-75 CNS

CC1=NN(C(=O)CC(=O)Nc2ccccc2Cl)C(=O)C1N=Nc1ccc(C(=O)O)cc1 (stereo not drawn)
TGI (786-0 renal): > 100 µM
TGI (A498 renal): > 100 µM
TGI (A549 NSCLC): > 100 µM
TGI (ACHN renal): > 100 µM
TGI (BT-549 breast): > 100 µM
TGI (CAKI-1 renal): > 100 µM
TGI (CCRF-CEM leukemia): > 100 µM
TGI (COLO 205 colon): > 100 µM
TGI (DU-145 prostate): > 100 µM
TGI (EKVX NSCLC): > 100 µM
TGI (HCC-2998 colon): > 100 µM
TGI (HCT-116 colon): > 100 µM
TGI (HCT-15 colon): > 100 µM
TGI (HL-60(TB) leukemia): > 100 µM
TGI (HOP-62 NSCLC): > 100 µM
TGI (HOP-92 NSCLC): > 100 µM
TGI (HS 578T breast): > 100 µM
TGI (HT29 colon): > 100 µM
TGI (IGROV1 ovarian): > 100 µM
TGI (K-562 leukemia): > 100 µM
TGI (KM12 colon): > 100 µM
TGI (LOX IMVI melanoma): > 100 µM
TGI (M14 melanoma): > 100 µM
TGI (MALME-3M melanoma): > 100 µM
TGI (MCF7 breast): > 100 µM
TGI (MDA-MB-231 breast): > 100 µM
TGI (MDA-MB-435): > 100 µM
TGI (MDA-N): > 100 µM
TGI (MOLT-4 leukemia): > 100 µM
TGI (NCI-H23 lung): > 100 µM
TGI (NCI-H460 lung): > 100 µM
TGI (NCI-H522 lung): > 100 µM
TGI (NCI/ADR-RES ovarian): > 100 µM
TGI (OVCAR-3 ovarian): > 100 µM
TGI (OVCAR-4 ovarian): > 100 µM
TGI (OVCAR-5 ovarian): > 100 µM
TGI (OVCAR-8 ovarian): > 100 µM
TGI (PC-3 prostate): > 100 µM
TGI (RPMI-8226 leukemia): > 100 µM
TGI (RXF 393 renal): > 100 µM
TGI (SF-268 CNS): > 100 µM
TGI (SF-295 CNS): > 100 µM
TGI (SF-539 CNS): > 100 µM
TGI (SK-MEL-2 melanoma): > 100 µM
TGI (SK-MEL-28 melanoma): > 100 µM
TGI (SK-MEL-5 melanoma): > 100 µM
TGI (SN12C renal): > 100 µM
TGI (SNB-19 CNS): > 100 µM
TGI (SR leukemia): > 100 µM
TGI (SW-620 colon): > 100 µM
TGI (T-47D breast): > 100 µM
TGI (TK-10 renal): > 100 µM
TGI (U251 CNS): > 100 µM
TGI (UACC-257 melanoma): > 100 µM
TGI (UACC-62 melanoma): > 100 µM
TGI (UO-31 renal): > 100 µM

Clc1ccc(Nc2nc(Cl)c3[nH]cnc3n2)cc1Cl
TGI (786-0 renal): 30.8 µM
TGI (A498 renal): 34.9 µM
TGI (A549 NSCLC): > 100 µM
TGI (ACHN renal): > 100 µM
TGI (BT-549 breast): 79.1 µM
TGI (CAKI-1 renal): 16.6 µM
TGI (CCRF-CEM leukemia): 48.2 µM
TGI (COLO 205 colon): 37.9 µM
TGI (DU-145 prostate): > 100 µM
TGI (EKVX NSCLC): 49.1 µM
TGI (HCC-2998 colon): 31.1 µM
TGI (HCT-116 colon): 86.7 µM
TGI (HCT-15 colon): 87.5 µM
TGI (HL-60(TB) leukemia): 47.7 µM
TGI (HOP-62 NSCLC): 52.5 µM
TGI (HOP-92 NSCLC): 53.4 µM
TGI (HS 578T breast): 56.3 µM
TGI (HT29 colon): 43.9 µM
TGI (IGROV1 ovarian): > 100 µM
TGI (K-562 leukemia): > 100 µM
TGI (KM12 colon): 64.7 µM
TGI (LOX IMVI melanoma): 34.1 µM
TGI (M14 melanoma): > 100 µM
TGI (MALME-3M melanoma): > 100 µM
TGI (MCF7 breast): > 100 µM
TGI (MDA-MB-231 breast): 51.9 µM
TGI (MDA-MB-435): 80.3 µM
TGI (MDA-N): > 100 µM
TGI (MOLT-4 leukemia): 61.3 µM
TGI (NCI-H226 lung): > 100 µM
TGI (NCI-H23 lung): 73.2 µM
TGI (NCI-H460 lung): 62.7 µM
TGI (NCI-H522 lung): 56.7 µM
TGI (NCI/ADR-RES ovarian): > 100 µM
TGI (OVCAR-3 ovarian): 61 µM
TGI (OVCAR-4 ovarian): > 100 µM
TGI (OVCAR-5 ovarian): > 100 µM
TGI (OVCAR-8 ovarian): > 100 µM
TGI (PC-3 prostate): 66.2 µM
TGI (RPMI-8226 leukemia): 83 µM
TGI (RXF 393 renal): 81.2 µM
TGI (SF-268 CNS): 91.3 µM
TGI (SF-295 CNS): 79.7 µM
TGI (SK-MEL-2 melanoma): 59.5 µM
TGI (SK-MEL-5 melanoma): 52.1 µM
TGI (SK-OV-3 ovarian): > 100 µM
TGI (SN12C renal): > 100 µM
TGI (SNB-19 CNS): > 100 µM
TGI (SNB-75 CNS): 52.3 µM
TGI (SR leukemia): 55.7 µM
TGI (SW-620 colon): > 100 µM
TGI (T-47D breast): 80.4 µM
TGI (TK-10 renal): > 100 µM
TGI (U251 CNS): > 100 µM
TGI (UACC-257 melanoma): 83.3 µM
TGI (UACC-62 melanoma): > 100 µM
TGI (UO-31 renal): 66.6 µM
